Data as given in patent publication US20260216182A1, “PYRIDAZINE NLRP3 INHIBITOR COMPOUND, PHARMACEUTICAL COMPOSITION, AND PREPARATION METHOD THEREFOR AND USE THEREOF” (CHANGCHUN GENESCIENCE PHARMACEUTICAL CO., LTD., priority 2022, published 2026).

Target: T1, NLRP3 (Homo sapiens, UniProt Q96P20)
T1 construct: endogenous in cells; host or cells: THP-1 (human monocyte, PMA-differentiated, LPS-primed, nigericin-stimulated)
Experiment: IC50 of NLRP3 inhibitors in reducing IL-1β secretion by THP-1 cells (PMA, LPS, nigericin; ELISA)
Type: cell-based
Details: compound + nigericin 1 h
Protocol: Test Example 1 Experiment on Detection of IC50 of NLRP3 Inhibitors in Reducing the Level of IL-1β Secretion by THP-1 Cells
In this experiment, we use the human monocyte THP-1 to study the inhibitory activity of NLRP3 inhibitor on the secretion of IL-Iβ by cells. Human THP-1 cells are treated with crotonol-12-tetradecanoate-13-acetate (PMA) to differentiate into mature macrophage models. Then, according to the two stages of inflammasome formation in cells (assembly and activation), the cells are stimulated with lipopolysaccharide (LPS) and nigericin in turn, ultimately promoting the extracellular release of IL-1β by THP-1 cells. The first stage of inflammasome formation involves stimulating cells with LPS (lipopolysaccharide), an agonist of the Toll-like receptor TLR4, to activate the expression of the inflammasome-associated proteins NLRP3, caspase 1, and pro-IL-1β, a precursor of IL-1β. The second stage of inflammasome formation involves the addition of the potassium ion carrier nigericin, which causes a series of membrane potential changes in THP-1 cells, destroys the cell membrane structure, causes the efflux of cellular potassium ions, further stimulates the oligomerization of NLRP3 monomers to form NLRP3 oligomers, and begins to recruit ASC and pro-caspase-1 to assemble the NLRP3 inflammasome complex containing a large amount of pro-caspase-1. The pro-caspase-1 on the activated NLRP3 inflammasome is enzymatically self-activated to form a large amount of active caspase-1. The activated caspase-1 further enzymatically promotes the conversion of pro-IL-1β into mature IL-1β that can be secreted.
(1) Cell suspensions were collected. The cells were centrifuged at 1000 rpm for 4 min, the supernatant was discarded, the cells were resuspended with 1 mL of test medium, and then the cell culture medium was gently pipetted up and down with a pipette and its tip to break up the cell aggregates. After counting the cells, the THP-1 cells were resuspended with complete RPMI medium 1640 containing PMA and seeded into 96-well plates and cultured in a 37° C., 5% CO2 incubator for 72 h.
(2) The culture medium was taken out from each well with an automatic plate washer dispenser EL406 and each well was rinsed twice with PBS. To each well, 96 μL of RPMI 1640 medium containing LPS was added. The cells were cultured in a 37° C., 5% CO2 incubator for 4 h.
(3) To each well, 2 μL of the compound and 2 μL of nigericin sodium salt were added, and the final compound concentration selected was 5000 nM, 1000 nM, 200 nM, 40 nM, 8 nM, 1.6 nM, 0.32 nM, 0 nM, respectively. The cells were cultured in a 37° C., 5% CO2 incubator for 1 h.
(4) An appropriate amount of supernatant was taken out, diluted 100 times, and the content of IL-1β in the supernatant was detected using Human IL-1 beta Valukine ELISA kit.

T1 sequence (Q96P20 whole entry): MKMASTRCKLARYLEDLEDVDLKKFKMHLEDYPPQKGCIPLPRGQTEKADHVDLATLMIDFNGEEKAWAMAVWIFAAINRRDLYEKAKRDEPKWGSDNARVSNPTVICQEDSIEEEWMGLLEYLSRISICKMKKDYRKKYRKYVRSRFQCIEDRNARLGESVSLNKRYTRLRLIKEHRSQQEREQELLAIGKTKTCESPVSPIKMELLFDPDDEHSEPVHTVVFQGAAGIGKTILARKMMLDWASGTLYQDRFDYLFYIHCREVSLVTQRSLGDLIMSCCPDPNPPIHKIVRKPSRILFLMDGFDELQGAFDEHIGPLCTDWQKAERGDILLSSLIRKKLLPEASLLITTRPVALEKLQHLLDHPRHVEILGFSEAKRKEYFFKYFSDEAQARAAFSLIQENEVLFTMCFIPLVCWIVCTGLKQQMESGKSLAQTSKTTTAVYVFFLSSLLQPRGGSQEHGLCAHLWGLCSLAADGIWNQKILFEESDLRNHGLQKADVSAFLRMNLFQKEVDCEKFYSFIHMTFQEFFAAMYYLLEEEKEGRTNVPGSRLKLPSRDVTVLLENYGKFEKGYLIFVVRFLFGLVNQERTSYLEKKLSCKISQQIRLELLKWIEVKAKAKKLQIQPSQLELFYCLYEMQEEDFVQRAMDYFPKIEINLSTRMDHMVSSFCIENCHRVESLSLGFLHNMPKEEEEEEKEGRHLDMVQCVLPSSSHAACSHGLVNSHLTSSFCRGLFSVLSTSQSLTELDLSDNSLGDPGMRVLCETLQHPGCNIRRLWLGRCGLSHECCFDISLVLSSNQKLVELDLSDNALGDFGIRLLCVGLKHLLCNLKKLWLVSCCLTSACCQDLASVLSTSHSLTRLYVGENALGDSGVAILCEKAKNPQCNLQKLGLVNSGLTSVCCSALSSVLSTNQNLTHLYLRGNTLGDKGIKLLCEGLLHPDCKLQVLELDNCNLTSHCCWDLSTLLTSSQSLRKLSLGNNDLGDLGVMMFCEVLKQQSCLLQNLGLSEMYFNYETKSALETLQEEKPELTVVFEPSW

| IC50 | SMILES |
| --- | --- |
| 111 nM | CC(C)(O)CNc1nnc(-c2ccc3sc(F)cc3c2O)c2ccc(C#N)cc12 [Compound 019, 1-(2-fluoro-4-hydroxybenzo[b]thiophen-5-yl)-4-((2-hydroxy-2-methylpropyl)amino) phthalazine-6-carbonitrile] |
| 54 nM | Cc1cc(Cl)cc(O)c1-c1nnc(NCC(C)(C)O)c2cc(-c3ccn(C)n3)ccc12 [Compound 040, 5-chloro-2-(4-((2-hydroxy-2-methylpropyl)amino)-6-(1-methyl-1H-pyrazol-3-yl)phthalazin-1-yl)-3-methylphenol] |
| 42 nM | CC#Cc1ccc2c(-c3ccc(C(F)(F)F)cc3O)nnc(N[C@@H]3CCC[C@H](O)C3)c2c1 [Compound 070] |
| 14 nM | CC(C(=O)NC1CC1)N1CCC[C@@H](Nc2nnc(-c3ccc(Cl)cc3O)c3ccncc23)C1 (mixture of isomers) [Compound 041, 2-((R)-3-((1-(4-chloro-2-hydroxyphenyl)pyrido[3,4-d]pyridazin-4-yl)amino)piperidin-1-yl)-N-cyclopropylpropionamide] |
| 18 nM | CC#Cc1ccc2c(-c3ccc(C(F)(F)F)cc3O)nnc(NC[C@H](O)CO)c2c1 [Compound 056, (S)-3-((4-(2-hydroxy-4-(trifluoromethyl)phenyl)-7-(prop-1-yn-1-yl)phthalazin-1-yl)amino) propan-1,2-diol] |
| 51 nM | CC#Cc1ccc2c(-c3ccc(Cl)cc3O)nnc(N[C@@H]3CC(=O)N(CCO)C3)c2c1 [Compound 073, (R)-4-((4-(4-chloro-2-hydroxyphenyl)-7-(prop-1-yn-1-yl)phthalazin-1-yl)amino)-1-(2-hydroxyethyl)pyrrolidin-2-one] |
| 36 nM | Oc1cc(Cl)ccc1-c1nnc(N[C@@H]2CCCC(=C(F)F)C2)c2cnccc12 [Compound 080, (R)-5-chloro-2-(4-((3-(difluoromethylene)cyclohexyl)amino)pyridin[3,4-d]pyridazin-1-yl)phenol] |
| 88 nM | CC(C)(O)CNc1nnc(-c2ccc(Cl)cc2O)c2ccc(C#N)cc12 [Compound 001, 1-(4-chloro-2-hydroxyphenyl)-4-((2-hydroxy-2-methylpropyl)amino) phthalazin-6-carbonitrile] |
| 14 nM | CC(C(=O)N1CCCC1)N1CCC[C@@H](Nc2nnc(-c3ccc(Cl)cc3O)c3ccncc23)C1 (stereo partly shown) [Compound 042] |
| 73 nM | Cc1cc(Cl)cc(O)c1-c1nnc(NCC(C)(C)O)c2cc(-c3cnn(C4CC4)c3)ccc12 [Compound 039, 5-chloro-2-(6-(1-cyclopropyl-1H-pyrazol-4-yl)-4-((2-hydroxy-2-methylpropyl)amino)phthalazin-1-yl)-3-methylphenol] |
| 14 nM | CC#Cc1ccc2c(-c3c(C)cc(Cl)cc3O)nnc(NC[C@@H](C)O)c2c1 (mixture of isomers) [Compound 035] |
| 42 nM | Cc1cc(Cl)cc(O)c1-c1nnc(NCC(C)(C)O)c2cc(-c3cnn(C)c3)ccc12 [Compound 038] |
| 12 nM | O=C(C1CC1)N1CCC[C@@H](Nc2nnc(-c3ccc(Cl)cc3O)c3ccncc23)C1 [Compound 006, (R)-(3-((1-(4-chloro-2-hydroxyphenyl)pyrido[3,4-d]pyridazin-4-yl)amino)piperidin-1-yl)(cyclopropyl)methanone] |
| 17 nM | C[C@H](C(N)=O)N1CCC[C@@H](Nc2nnc(-c3ccc(Cl)cc3O)c3ccncc23)C1 [Compound 017, (R)-2-((R)-3-((1-(4-chloro-2-hydroxyphenyl)pyrido[3,4-d]pyridazin-4-yl)amino)piperidin-1-yl) propionamide] |
| 23 nM | CC#Cc1ccc2c(-c3ccc(C(F)(F)F)cc3O)nnc(N[C@@H]3CCCC[C@H]3O)c2c1 [Compound 061, 2-(4-(((1R,2R)-2-hydroxycyclohexyl)amino)-6-(prop-1-yn-1-yl)phthalazin-1-yl)-5-(trifluoromethyl)phenol] |
| 34 nM | CC(C)(C(=O)NC1CC1)N1CCC[C@@H](Nc2nnc(-c3ccc(Cl)cc3O)c3ccncc23)C1 [Compound 043, (R)-2-(3-((1-(4-chloro-2-hydroxyphenyl)pyrido[3,4-d]pyridazin-4-yl)amino)piperidin-1-yl)-N-cyclopropyl-2-methylpropionamide] |
| 50 nM | CC(C)(O)CNc1nnc(-c2ccc3sccc3c2O)c2ccc(C#N)cc12 [Compound 018, 4-((2-hydroxy-2-methylpropyl)amino)-1-(4-hydroxybenzo[b]thiophen-5-yl) phthalazine-6-carbonitrile] |
| 31 nM | CC#Cc1ccc2c(-c3ccc(C(F)(F)F)cc3O)nnc(NCC(C)(C)O)c2c1 [Compound 069, 2-(4-((2-hydroxy-2-methylpropyl)amino)-6-(prop-1-yn-1-yl)phthalazin-1-yl)-5-(trifluoromethyl)phenol] |

The next lines start with the compound.

| SMILES | IC50 |
| --- | --- |
| CC#Cc1ccc2c(-c3c(C)cc(Cl)cc3O)nnc(NCC(C)(C)O)c2c1 [Compound 024-1] | 108 nM |
| NC(=O)N1CCC[C@@H](Nc2nnc(-c3ccc(Cl)cc3O)c3ccncc23)C1 [Compound 008, (R)-3-((1-(4-chloro-2-hydroxyphenyl)pyrido[3,4-d]pyridazin-4-yl)amino)piperidin-1-formamide] | 39 nM |
| Cc1cc(C(F)(F)F)cc(O)c1-c1nnc(NCC(C)(C)O)c2cc(C#N)ccc12 [Compound 007, 4-((2-hydroxy-2-methylpropyl)amino)-1-(2-hydroxy-6-methyl-4-(trifluoromethyl)phenyl) phthalazin-6-carbonitrile] | 29 nM |
| Cn1cc(-c2ccc3c(-c4ccc(Cl)cc4O)nnc(NCC(C)(C)O)c3c2)cn1 [Compound 004, 5-chloro-2-(4-((2-hydroxy-2-methylpropyl)amino)-6-(1-methyl-1H-pyrazol-4-yl)phthalazin-1-yl)phenol] | 63 nM |
| C[C@@H](C(N)=O)N1CCC[C@@H](Nc2nnc(-c3ccc(Cl)cc3O)c3ccncc23)C1 [Compound 016, (S)-2-((R)-3-((1-(4-chloro-2-hydroxyphenyl)pyrido[3,4-d]pyridazin-4-yl)amino)piperidin-1-yl) propionamide] | 11 nM |
| Cc1cc(Cl)cc(O)c1-c1nnc(NCC(C)(C)O)c2cc(-n3ccnn3)ccc12 [Compound 058, 5-chloro-2-(4-((2-hydroxy-2-methylpropyl)amino)-6-(1H-1,2,3-triazol-1-yl)phthalazin-1-yl)-3-methylphenol] | 158 nM |
| N#Cc1ccc2c(-c3ccc(Cl)cc3O)nnc(N[C@@H]3CCCN(C(=O)C4CC4)C3)c2c1 [Compound 005, (R)-1-(4-chloro-2-hydroxyphenyl)-4-((1-(cyclopropanecarbonyl)piperidin-3-yl)amino) phthalazin-6-carbonitrile] | 37 nM |
| COC(=O)N1CCC[C@@H](Nc2nnc(-c3ccc(Cl)cc3O)c3ccncc23)C1 [Compound 010, Methyl (R)-3-((1-(4-chloro-2-hydroxyphenyl)pyrido[3,4-d]pyridazin-4-yl)amino)piperidin-1-carboxylate] | 16 nM |
| CCn1cc(-c2ccc3c(-c4c(C)cc(Cl)cc4O)nnc(NCC(C)(C)O)c3c2)cn1 [Compound 051, 5-chloro-2-(6-(1-ethyl-1H-pyrazol-4-yl)-4-((2-hydroxy-2-methylpropyl)amino)phthalazin-1-yl)-3-methylphenol] | 46 nM |
| CC#Cc1ccc2c(-c3ccc(Cl)cc3O)nnc(N[C@@H]3CCN(CCO)C3=O)c2c1 [Compound 074, (R)-3-((4-(4-chloro-2-hydroxyphenyl)-7-(prop-1-yn-1-yl)phthalazin-1-yl)amino)-1-(2-hydroxyethyl)pyrrolidin-2-one] | 7.2 nM |
| CC#Cc1ccc2c(-c3c(C)cc(Cl)cc3O)nnc(NCC(C)(C)O)c2c1 [Compound 024, 5-chloro-2-(4-((2-hydroxy-2-methylpropyl)amino)-6-(1-propyn-1-yl)phthalazin-1-yl)-3-methylphenol] | 19 nM |
| CC#Cc1ccc2c(-c3ccc(Cl)cc3O)nnc(N[C@@H]3CCC(=O)N(CCO)C3)c2c1 [Compound 076, (R)-5-((4-(4-chloro-2-hydroxyphenyl)-7-(prop-1-yn-1-yl)phthalazin-1-yl)amino)-1-(2-hydroxyethyl) piperidin-2-one] | 35 nM |
| CC#Cc1ccc2c(-c3ccc(C(F)(F)F)cc3O)nnc(N[C@H]3C[C@@](C)(O)C3)c2c1 [Compound 065, 2-(4-(((1S, 3S)-3-hydroxy-3-methylcyclobutyl)amino)-6-(prop-1-yn-1-yl)phthalazin-1-yl)-5-(trifluoromethyl)phenol] | 13 nM |
